# Measured values reported in PubChem BioAssay (NCI).
# Several values for one entry are separate records, joined by “and”; a condition that tells them apart may be missing. Equal values may be shown once.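 These data come from cells grown in 96-well plates and exposed to compound for 48 hours at five concentrations. GI50 is the concentration that inhibits growth by half. The concentration for full growth arrest is given as TGI.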
# Tests used:
# Test in all cases: inhibition of tumour cell growth, NCI panel, 48 h
# EKVX NSCLC = test system: EKVX NSCLC
# OVCAR-3 ovarian = test system: OVCAR-3 ovarian
# IGROV1 ovarian = test system: IGROV1 ovarian
# SN12C renal = test system: SN12C renal
# DU-145 prostate = test system: DU-145 prostate
# CCRF-CEM leukemia = test system: CCRF-CEM leukemia
# MDA-MB-435 = test system: MDA-MB-435
# SF-295 CNS = test system: SF-295 CNS
# HCC-2998 colon = test system: HCC-2998 colon
# MOLT-4 leukemia = test system: MOLT-4 leukemia
# SF-268 CNS = test system: SF-268 CNS
# SK-MEL-2 melanoma = test system: SK-MEL-2 melanoma
# ACHN renal = test system: ACHN renal
# SF-539 CNS = test system: SF-539 CNS
# K-562 leukemia = test system: K-562 leukemia
# PC-3 prostate = test system: PC-3 prostate
# HOP-92 NSCLC = test system: HOP-92 NSCLC
# HOP-62 NSCLC = test system: HOP-62 NSCLC
# UACC-62 melanoma = test system: UACC-62 melanoma
# NCI/ADR-RES ovarian = test system: NCI/ADR-RES ovarian
# HT29 colon = test system: HT29 colon
# SR leukemia = test system: SR leukemia
# TK-10 renal = test system: TK-10 renal
# HS 578T breast = test system: HS 578T breast
# RPMI-8226 leukemia = test system: RPMI-8226 leukemia
# SW-620 colon = test system: SW-620 colon
# T-47D breast = test system: T-47D breast
# BT-549 breast = test system: BT-549 breast
# NCI-H460 lung = test system: NCI-H460 lung
# MDA-MB-231 breast = test system: MDA-MB-231 breast
# RXF 393 renal = test system: RXF 393 renal
# OVCAR-4 ovarian = test system: OVCAR-4 ovarian
# SNB-19 CNS = test system: SNB-19 CNS
# U251 CNS = test system: U251 CNS
# HCT-15 colon = test system: HCT-15 colon
# M14 melanoma = test system: M14 melanoma
# HL-60(TB) leukemia = test system: HL-60(TB) leukemia
# 786-0 renal = test system: 786-0 renal
# COLO 205 colon = test system: COLO 205 colon
# OVCAR-8 ovarian = test system: OVCAR-8 ovarian
# NCI-H23 lung = test system: NCI-H23 lung
# NCI-H522 lung = test system: NCI-H522 lung
# A498 renal = test system: A498 renal
# LOX IMVI melanoma = test system: LOX IMVI melanoma
# UO-31 renal = test system: UO-31 renal
# A549 NSCLC = test system: A549 NSCLC
# KM12 colon = test system: KM12 colon
# SK-OV-3 ovarian = test system: SK-OV-3 ovarian
# SNB-75 CNS = test system: SNB-75 CNS
# CAKI-1 renal = test system: CAKI-1 renal
# SK-MEL-28 melanoma = test system: SK-MEL-28 melanoma
# MCF7 breast = test system: MCF7 breast
# SK-MEL-5 melanoma = test system: SK-MEL-5 melanoma
# UACC-257 melanoma = test system: UACC-257 melanoma
# MALME-3M melanoma = test system: MALME-3M melanoma
# OVCAR-5 ovarian = test system: OVCAR-5 ovarian
# HCT-116 colon = test system: HCT-116 colon
# NCI-H226 lung = test system: NCI-H226 lung
structure (smiles),measurement,setting,value
CC1CCCc2sc3nc(NNC(=O)c4cnccn4)n(-c4ccccc4)c(=O)c3c21 (stereo not given),GI50,EKVX NSCLC,383 nM and 258 nM
same,TGI,EKVX NSCLC,> 100000 nM
same,GI50,OVCAR-3 ovarian,288 nM and 249 nM
same,TGI,OVCAR-3 ovarian,22200 nM and 12500 nM
same,GI50,IGROV1 ovarian,327 nM and 172 nM
same,TGI,IGROV1 ovarian,16900 nM and 13300 nM
same,GI50,SN12C renal,468 nM and 368 nM
same,TGI,SN12C renal,15900 nM and 13700 nM
same,GI50,DU-145 prostate,598 nM and 339 nM
same,TGI,DU-145 prostate,> 39800 nM and 18900 nM
same,GI50,CCRF-CEM leukemia,295 nM and 169 nM
same,TGI,CCRF-CEM leukemia,> 100000 nM
same,GI50,MDA-MB-435,700 nM and 556 nM
same,TGI,MDA-MB-435,25100 nM and > 40800 nM
same,GI50,SF-295 CNS,479 nM and 159 nM
same,TGI,SF-295 CNS,15400 nM and 7810 nM
same,GI50,HCC-2998 colon,550 nM and 324 nM
same,TGI,HCC-2998 colon,26300 nM and 16300 nM
same,GI50,MOLT-4 leukemia,343 nM and 256 nM
same,TGI,MOLT-4 leukemia,> 100000 nM
same,GI50,SF-268 CNS,346 nM and 207 nM
same,TGI,SF-268 CNS,> 100000 nM
same,GI50,SK-MEL-2 melanoma,1050 nM and 705 nM
same,TGI,SK-MEL-2 melanoma,19400 nM and 19800 nM
same,GI50,ACHN renal,331 nM and 217 nM
same,TGI,ACHN renal,18700 nM and 13100 nM
same,GI50,SF-539 CNS,658 nM and 328 nM
same,TGI,SF-539 CNS,10300 nM and 4320 nM
same,GI50,K-562 leukemia,454 nM and 399 nM
same,TGI,K-562 leukemia,> 100000 nM
same,GI50,PC-3 prostate,499 nM and 385 nM
same,TGI,PC-3 prostate,22200 nM and 26600 nM
same,GI50,HOP-92 NSCLC,996 nM and 397 nM
same,TGI,HOP-92 NSCLC,21800 nM and 16600 nM
same,GI50,HOP-62 NSCLC,385 nM and 203 nM
same,TGI,HOP-62 NSCLC,> 100000 nM
same,GI50,UACC-62 melanoma,296 nM and 258 nM
same,TGI,UACC-62 melanoma,2200 nM and 1110 nM
same,GI50,NCI/ADR-RES ovarian,380 nM and 232 nM
same,GI50,HT29 colon,975 nM and 461 nM
same,TGI,HT29 colon,49000 nM and 17600 nM
same,GI50,SR leukemia,361 nM and 110 nM
same,TGI,SR leukemia,> 32600 nM
same,GI50,TK-10 renal,686 nM and 329 nM
same,TGI,TK-10 renal,> 83000 nM
same,GI50,HS 578T breast,3460 nM and 2790 nM
same,TGI,HS 578T breast,> 74600 nM and 87300 nM
same,GI50,RPMI-8226 leukemia,563 nM and 277 nM
same,TGI,RPMI-8226 leukemia,17900 nM and 16600 nM
same,GI50,SW-620 colon,483 nM and 463 nM
same,TGI,SW-620 colon,> 100000 nM
same,GI50,T-47D breast,520 nM and 397 nM
same,TGI,T-47D breast,> 100000 nM
same,GI50,BT-549 breast,813 nM and 472 nM
same,TGI,BT-549 breast,28600 nM and 12400 nM
same,GI50,NCI-H460 lung,250 nM and 121 nM
same,TGI,NCI-H460 lung,11400 nM and 2270 nM
same,GI50,MDA-MB-231 breast,425 nM and 328 nM
same,TGI,MDA-MB-231 breast,13400 nM and 13500 nM
same,GI50,RXF 393 renal,955 nM and 454 nM
same,TGI,RXF 393 renal,5480 nM and 3840 nM
same,GI50,OVCAR-4 ovarian,211 nM and 215 nM
same,TGI,OVCAR-4 ovarian,> 100000 nM
same,GI50,SNB-19 CNS,389 nM and 340 nM
same,TGI,SNB-19 CNS,> 100000 nM
same,GI50,U251 CNS,260 nM and 182 nM
same,TGI,U251 CNS,> 40800 nM and 30100 nM
same,GI50,HCT-15 colon,237 nM and 71.7 nM
same,TGI,HCT-15 colon,34400 nM and 17600 nM
same,GI50,M14 melanoma,321 nM and 205 nM
same,TGI,M14 melanoma,5440 nM and 2650 nM
same,GI50,HL-60(TB) leukemia,367 nM and 279 nM
same,TGI,HL-60(TB) leukemia,2750 nM and 908 nM
same,GI50,786-0 renal,508 nM and 274 nM
same,TGI,786-0 renal,12400 nM and 5430 nM
same,GI50,COLO 205 colon,327 nM and 284 nM
same,TGI,COLO 205 colon,3520 nM and 25000 nM
same,GI50,OVCAR-8 ovarian,346 nM and 333 nM
same,TGI,OVCAR-8 ovarian,> 93200 nM
same,GI50,NCI-H23 lung,871 nM and 465 nM
same,TGI,NCI-H23 lung,> 100000 nM and 26500 nM
same,GI50,NCI-H522 lung,392 nM and 327 nM
same,TGI,NCI-H522 lung,10200 nM and 16600 nM
same,GI50,A498 renal,2620 nM and 688 nM
same,TGI,A498 renal,8540 nM and 4440 nM
same,GI50,LOX IMVI melanoma,259 nM and 195 nM
same,TGI,LOX IMVI melanoma,3800 nM and 8060 nM
same,GI50,UO-31 renal,214 nM and 151 nM
same,TGI,UO-31 renal,6470 nM and 2960 nM
same,GI50,A549 NSCLC,367 nM and 262 nM
same,TGI,A549 NSCLC,22400 nM and 16200 nM
same,GI50,KM12 colon,428 nM and 347 nM
same,TGI,KM12 colon,> 49100 nM and 32500 nM
same,GI50,SK-OV-3 ovarian,489 nM and 544 nM
same,TGI,SK-OV-3 ovarian,8420 nM and 8200 nM
same,GI50,SNB-75 CNS,1060 nM and 899 nM
same,TGI,SNB-75 CNS,38700 nM and > 50000 nM
same,GI50,CAKI-1 renal,559 nM and 334 nM
same,TGI,CAKI-1 renal,> 54400 nM and 9230 nM
same,GI50,SK-MEL-28 melanoma,485 nM and 378 nM
same,TGI,SK-MEL-28 melanoma,19800 nM and 32500 nM
same,GI50,MCF7 breast,325 nM and 238 nM
same,TGI,MCF7 breast,> 79300 nM and 14400 nM
same,GI50,SK-MEL-5 melanoma,371 nM and 205 nM
same,TGI,SK-MEL-5 melanoma,1810 nM and 933 nM
same,GI50,UACC-257 melanoma,540 nM and 365 nM
same,TGI,UACC-257 melanoma,6980 nM and 3860 nM
same,GI50,MALME-3M melanoma,657 nM and 345 nM
same,TGI,MALME-3M melanoma,11600 nM and 11100 nM
same,GI50,OVCAR-5 ovarian,656 nM and 371 nM
same,TGI,OVCAR-5 ovarian,30900 nM and 33600 nM
same,GI50,HCT-116 colon,338 nM and 264 nM
same,TGI,HCT-116 colon,14000 nM and 13400 nM
same,GI50,NCI-H226 lung,634 nM and 277 nM
same,TGI,NCI-H226 lung,9600 nM and 5750 nM
